Experimental data taken from PubChem BioAssay AID248 (DTP/NCI, 2004).
Where “and” joins values, the source holds several entries; their conditions need not be identical. Equal entries are not always repeated. Inconclusive results and toxic doses are left out. Cut-off read from the data, not from the text of the source: active = T/C of 150% or more; inactive = T/C below 125%.

Test system: L1210 leukemia ip in BDF1 mice, survival T/C
Assay: NCI In Vivo Anticancer Drug Screen. Data for tumor model L1210 Leukemia (intraperitoneal) in B6D2F1 (BDF1) mice
Settings: endpoint: mean survival time, higher = longer survival
In short: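 Tumor cells were implanted, animals were treated, and survival was followed. The result divides the treated measurement by the vehicle-control measurement.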

[1] = dose: 100.0 mg/kg/injection, schedule: Q01DX009 (ip), vehicle: Klucel (hydroxypropylcellulose) (HPC)
[2] = dose: 100.0 mg/kg/injection, schedule: Q04DX003 (ip), vehicle: Klucel (hydroxypropylcellulose) (HPC)
[3] = dose: 200.0 mg/kg/injection, schedule: Q01DX009 (ip), vehicle: Klucel (hydroxypropylcellulose) (HPC)
[4] = dose: 200.0 mg/kg/injection, schedule: Q04DX003 (ip), vehicle: Klucel (hydroxypropylcellulose) (HPC)
[5] = dose: 400.0 mg/kg/injection, schedule: Q01DX009 (ip), vehicle: Klucel (hydroxypropylcellulose) (HPC)
[6] = dose: 400.0 mg/kg/injection, schedule: Q04DX003 (ip), vehicle: Klucel (hydroxypropylcellulose) (HPC)
[7] = dose: 100.0 mg/kg/injection, schedule: Q01DX001 (ip), vehicle: saline
[8] = dose: 200.0 mg/kg/injection, schedule: Q01DX001 (ip), vehicle: saline
[9] = dose: 400.0 mg/kg/injection, schedule: Q01DX001 (ip), vehicle: saline
[10] = dose: 50.0 mg/kg/injection, schedule: Q01DX001 (ip), vehicle: saline
[11] = dose: 50.0 mg/kg/injection, schedule: Q01DX009 (ip), vehicle: Klucel (hydroxypropylcellulose) (HPC)
[12] = dose: 100.0 mg/kg/injection, schedule: Q01DX001 (ip), vehicle: Klucel (hydroxypropylcellulose) (HPC)
[13] = dose: 200.0 mg/kg/injection, schedule: Q01DX001 (ip), vehicle: Klucel (hydroxypropylcellulose) (HPC)
[14] = dose: 100.0 mg/kg/injection, schedule: Q01DX009 (ip), vehicle: saline with Tween-80
[15] = dose: 100.0 mg/kg/injection, schedule: Q04DX003 (ip), vehicle: saline
[16] = dose: 200.0 mg/kg/injection, schedule: Q04DX003 (ip), vehicle: saline
[17] = dose: 400.0 mg/kg/injection, schedule: Q04DX003 (ip), vehicle: saline

Measured: T/C

CCOc1ccc(NC(=O)COc2ccc(Cl)cc2)cc1
inactive: [1] 88 % of control | [2] 93 % of control | [3] 92 % of control | [4] 101 % of control | [5] 87 % of control | [6] 101 % of control

CCc1cc(CC)c(/C(Cl)=C/C(=O)NCC(=O)O)c(CC)c1Br
inactive: dose: 75.0 mg/kg/injection, schedule: Q04DX003 (ip), vehicle: Klucel (hydroxypropylcellulose) (HPC) 95 % of control | dose: 150.0 mg/kg/injection, schedule: Q04DX003 (ip), vehicle: Klucel (hydroxypropylcellulose) (HPC) 93 % of control | dose: 300.0 mg/kg/injection, schedule: Q04DX003 (ip), vehicle: Klucel (hydroxypropylcellulose) (HPC) 87 % of control

Nc1nc2nc(-c3ccc([N+](=O)[O-])cc3)nc(N)c2nc1-c1ccc(N(CCO)CCO)cc1
inactive: [7] 90 % of control | [8] 95 % of control | [9] 95 % of control

NC(=S)N/N=C/c1[nH]c(=O)[nH]c(=O)c1Br
inactive: dose: 100.0 mg/kg/injection, schedule: Q01DX001 (ip), vehicle: saline with Tween-80 93 % of control | dose: 200.0 mg/kg/injection, schedule: Q01DX001 (ip), vehicle: saline with Tween-80 97 % of control | dose: 400.0 mg/kg/injection, schedule: Q01DX001 (ip), vehicle: saline with Tween-80 103 % of control

C/C(=N\Nc1ccc([N+](=O)[O-])cc1[N+](=O)[O-])C(F)(F)F
inactive: dose: 100.0 mg/kg/injection, schedule: Q01DX009 (ip), vehicle: saline sonified 95 % of control | [2] 94 % of control | dose: 200.0 mg/kg/injection, schedule: Q01DX009 (ip), vehicle: saline sonified 98 % of control | [4] 104 % of control | dose: 400.0 mg/kg/injection, schedule: Q01DX009 (ip), vehicle: saline sonified 95 % of control | [6] 104 % of control

Cc1cc(N(CCCl)CCCl)ccc1C=Nc1ccccc1C(=O)O
inactive: [10] 94 % of control | [11] 106 % of control | [12] 94 % of control | [7] 105 % of control | [1] 113 % of control | [13] 103 % of control | [8] 103 % of control | [3] 120 % of control | dose: 400.0 mg/kg/injection, schedule: Q01DX001 (ip), vehicle: Klucel (hydroxypropylcellulose) (HPC) 101 % of control | [9] 105 % of control | [5] 98 % of control

CCCCNC(=O)Nc1c(C)cccc1C
inactive: dose: 100.0 mg/kg/injection, schedule: Q01DX009 (ip), vehicle: gum acacia 99 % of control | dose: 100.0 mg/kg/injection, schedule: Q04DX003 (ip), vehicle: gum acacia 92 % of control | dose: 200.0 mg/kg/injection, schedule: Q01DX009 (ip), vehicle: gum acacia 87 % of control | dose: 200.0 mg/kg/injection, schedule: Q04DX003 (ip), vehicle: gum acacia 91 % of control | dose: 400.0 mg/kg/injection, schedule: Q01DX009 (ip), vehicle: gum acacia 87 % of control | dose: 400.0 mg/kg/injection, schedule: Q04DX003 (ip), vehicle: gum acacia 92 % of control

C=CCCCCCCCCC
inactive: dose: 100.0 mg/kg/injection, schedule: Q04DX002 (ip), vehicle: saline with Tween-80 93 % of control | dose: 200.0 mg/kg/injection, schedule: Q04DX002 (ip), vehicle: saline with Tween-80 111 % of control | dose: 400.0 mg/kg/injection, schedule: Q04DX002 (ip), vehicle: saline with Tween-80 104 % of control

BrC1C2C3C=CC4C(C=C3)C4C12 (stereo not given)
inactive: dose: 50.0 mg/kg/injection, schedule: Q01DX001 (ip), vehicle: Klucel (hydroxypropylcellulose) (HPC) 100 % of control and 101 % of control | [12] 98 % of control and 111 % of control | [13] 108 % of control and 93 % of control

Cc1ccc2[nH]c(-c3ccccc3)c(-c3ccccc3)c2c1
inactive: [14] 95 % of control | dose: 200.0 mg/kg/injection, schedule: Q01DX009 (ip), vehicle: saline with Tween-80 103 % of control | dose: 400.0 mg/kg/injection, schedule: Q01DX009 (ip), vehicle: saline with Tween-80 95 % of control

[N-]=[N+]=C1Cc2ccccc2C1=O
inactive: [1] 103 % of control | [2] 102 % of control | [3] 100 % of control | [4] 105 % of control | [6] 92 % of control

Cn1ncc2c(N(N)CCO)nc(-c3ccc([N+](=O)[O-])o3)nc21
inactive: [10] 108 % of control | [7] 108 % of control | [8] 104 % of control | [9] 117 % of control

CCCCCC1SC1CC1SC1CCCCCCCC(=O)N(CCCC)CCCC (stereo not given)
inactive: dose: 30.0 mg/kg/injection, schedule: Q01DX001 (ip), vehicle: saline 102 % of control | [7] 96 % of control | dose: 300.0 mg/kg/injection, schedule: Q01DX001 (ip), vehicle: saline 89 % of control

Nc1nc(N)c(CCCCc2ccccc2)c(-c2ccccc2)n1
inactive: [11] 98 % of control | [1] 95 % of control | [3] 95 % of control

COc1ccc(CCN(CCO)CCNS(=O)(=O)c2ccc(C)cc2)cc1
inactive: dose: 100.0 mg/kg/injection, schedule: Q01DX001 (ip), vehicle: water 98 % of control | dose: 200.0 mg/kg/injection, schedule: Q01DX001 (ip), vehicle: water 107 % of control | dose: 400.0 mg/kg/injection, schedule: Q01DX001 (ip), vehicle: water 107 % of control

C=CCC(CC)(C(=O)O)C(=O)O
inactive: dose: 100.0 mg/kg/injection, schedule: Q01DX009 (ip), vehicle: saline 96 % of control | [15] 102 % of control | dose: 200.0 mg/kg/injection, schedule: Q01DX009 (ip), vehicle: saline 93 % of control | [16] 95 % of control | [17] 86 % of control

C[N+](C)(C)CCOC(=O)c1cc(CBr)cc(CBr)c1
inactive: dose: 25.0 mg/kg/injection, schedule: Q01DX009 (ip), vehicle: saline 101 % of control | dose: 25.0 mg/kg/injection, schedule: Q04DX003 (ip), vehicle: saline 98 % of control | dose: 50.0 mg/kg/injection, schedule: Q01DX009 (ip), vehicle: saline 95 % of control | dose: 50.0 mg/kg/injection, schedule: Q04DX003 (ip), vehicle: saline 100 % of control | [15] 102 % of control

COc1cc(C)ccc1C1OC(=O)c2c1ccc(OC)c2OC (stereo not given)
inactive: [7] 97 % of control | [8] 101 % of control | [9] 92 % of control

O=S(=O)(O)c1ccc(-c2c3nc(c(-c4ccc(S(=O)(=O)O)cc4)c4ccc([nH]4)c(-c4ccc(S(=O)(=O)O)cc4)c4nc(c(-c5ccc(S(=O)(=O)O)cc5)c5ccc2[nH]5)C=C4)C=C3)cc1
inactive: dose: 12.5 mg/kg/injection, schedule: Q01DX009 (ip), vehicle: saline with Tween-80 90 % of control | dose: 25.0 mg/kg/injection, schedule: Q01DX009 (ip), vehicle: saline with Tween-80 90 % of control | dose: 50.0 mg/kg/injection, schedule: Q01DX009 (ip), vehicle: saline with Tween-80 98 % of control | [14] 88 % of control

NC(=O)C1C2CC3OC(=O)C1C3C2 (stereo not given)
inactive: [15] 93 % of control and 103 % of control | [16] 102 % of control and 100 % of control | [17] 96 % of control and 88 % of control
